Data taken from patent US20260027132A1, “FRAGRANCE COMPOSITIONS AND USE THEREOF FOR IMPROVING SLEEP” (TAKASAGO INTERNATIONAL CORPORATION, priority 2018, published 2026).

Tested on: panelists
Test: Sleep study with panelists smelling test material at bedtime, Fitbit sleep data versus blank control
Assay type: in vivo, human
Conditions: vs blank control (no fragrance), 0.06 g neat oil on a blotter, smelled at bedtime, jar left open, one week
Description: A series of sleep studies were conducted. Each study runs one week with one additional week for blank control sample (no fragrance). The number of panelists in each study ranged from 9 to 15. Panelists received either a set of control jars or a set of jars with test material (0.06 g neat oil on a blotter). The second week the order was reversed such that at the end of each study, each panelist had received both treatments.
Each night, when ready to go to sleep, panelists were instructed to open one of the jars, hold it under their nose, and smell the fragrance while counting slowly to 20, then leave the jar open on the night table while sleeping. Fitbit sleep data were collected at the end of each session of each study and analyzed by ANOVA.

| Structure (SMILES) | Total deep sleep minutes % Increase [%] | Total light sleep minutes % Increase [%] | Total minutes asleep % Increase [%] | Sleep efficiency % Increase [%] | Total REM sleep minutes % Increase [%] | Total minutes awake % Decrease [%] |
| --- | --- | --- | --- | --- | --- | --- |
| CC1CCCCCCCCCCCCC(=O)C1 [L-muscone, 3-methylcyclopentadecan-1-one] | 11 | – | – | – | – | – |
| CC(C)=CCC/C(C)=C\CO [Nerol, nerol] | – | 4 | 4 | – | – | – |
| C=CC(C)(O)CCC=C(C)C (stereo not shown) [Linalool, linalool] | – | 5 | – | – | – | – |
| CC(=O)/C(C)=C/C1C(C)=CCCC1(C)C (stereo not shown) [gamma-methyl ionone] | – | 12 | – | – | – | – |
| CC(C)C(=O)OCCOc1ccccc1 [Phenoxyethyl isobutyrate, phenoxyethyl isobutyrate] | – | 8 | – | – | – | – |
| CC(C=O)Cc1ccc(C(C)(C)C)cc1 (stereo not shown) [Lilial, lilial] | – | 5 | 4 | 1 | 6 | – |
| CC1(C)CCC[C@]2(C)[C@H]3CCO[C@]3(C)CC[C@@H]12 [Ambroxan, (3aR,5aS,9aS,9bR)-3a,6,6,9a-tetramethyl-2,4,5,5a,7,8,9,9b-octahydro-1H-benzo[e][1]benzofuran] | – | – | – | – | – | 8 |
| O=C1CCCCCCCCCCCC(=O)OCCO1 [Musk T, 1,4-dioxacycloheptadecane-5,17-dione] | – | – | – | 2 | – | 13 |
| O=C1CCCC=CCCCCCCCCCC1 [Ambretone, 5-cyclohexadecen-1-one] | – | 4 | – | – | – | – |
| CC(C=O)Cc1ccc(C(C)C)cc1 (stereo not shown) [Cyclamen aldehyde, cyclamen aldehyde] | 7.4 | – | 4 | 1.2 | – | 7 |
| COc1cc(C=O)ccc1O [Vanillin, vanillin] | – | – | – | – | 7 | – |
| CC(=O)/C=C/C1=C(C)CCCC1(C)C [beta-ionone] | – | 3 | – | 2 | – | 12 |
| CC/C=C\CCOC(=O)c1ccccc1O [cis-3-hexenyl salicylate] | 8 | – | – | – | – | – |
| CC(C)=CCC/C(C)=C/CO [Geraniol, geraniol] | 29 | 8 | 10 | – | – | – |
| C=CC(C)(CCC=C(C)C)OC(C)=O (stereo not shown) [Linalyl acetate, linalyl acetate] | 16 | – | – | 2 | 19 | 10.6 |
| CC(C)[C@@H]1CC[C@@H](C)C[C@H]1O [L-menthol] | – | 3 | – | 1 | – | – |
| C=CC(C)CCCC(C)(C)O (stereo not shown) [Dihydromyrcenol, dihydromyrcenol] | 37 | – | 13 | – | 10 | – |
| CC(=O)/C=C/C1C(C)=CCCC1(C)C (stereo not drawn) [alpha-ionone] | 14 | – | 5 | – | – | – |
